Laboratory results published in US20120094998A1, “Oligomer-Protein Tyrosine Kinase Inhibitor Conjugates” (Nektar Therapeutics, priority 2009, published 2012).
Like-named read-outs stand apart in the source and are kept apart here.

Columns and labels:
Format in all cases: biochemical
AKT1 = AKT1 (Homo sapiens, UniProt P31749); assay: Activity against various protein tyrosine kinases: AKT1; settings: for inhibition at 0.01 µM: 10 nM
Protocol: (§1) Using techniques know those of ordinary skill in the art, compounds were tested for activity against various protein tyrosine kinases.

CaMKII (beta) = CaMKII (beta) (Homo sapiens, UniProt Q13554); assay: Activity against various protein tyrosine kinases: CaMKII (beta); settings: for inhibition at 0.01 µM: 10 nM
Sequence of CaMKII (beta) (Q13554 whole entry): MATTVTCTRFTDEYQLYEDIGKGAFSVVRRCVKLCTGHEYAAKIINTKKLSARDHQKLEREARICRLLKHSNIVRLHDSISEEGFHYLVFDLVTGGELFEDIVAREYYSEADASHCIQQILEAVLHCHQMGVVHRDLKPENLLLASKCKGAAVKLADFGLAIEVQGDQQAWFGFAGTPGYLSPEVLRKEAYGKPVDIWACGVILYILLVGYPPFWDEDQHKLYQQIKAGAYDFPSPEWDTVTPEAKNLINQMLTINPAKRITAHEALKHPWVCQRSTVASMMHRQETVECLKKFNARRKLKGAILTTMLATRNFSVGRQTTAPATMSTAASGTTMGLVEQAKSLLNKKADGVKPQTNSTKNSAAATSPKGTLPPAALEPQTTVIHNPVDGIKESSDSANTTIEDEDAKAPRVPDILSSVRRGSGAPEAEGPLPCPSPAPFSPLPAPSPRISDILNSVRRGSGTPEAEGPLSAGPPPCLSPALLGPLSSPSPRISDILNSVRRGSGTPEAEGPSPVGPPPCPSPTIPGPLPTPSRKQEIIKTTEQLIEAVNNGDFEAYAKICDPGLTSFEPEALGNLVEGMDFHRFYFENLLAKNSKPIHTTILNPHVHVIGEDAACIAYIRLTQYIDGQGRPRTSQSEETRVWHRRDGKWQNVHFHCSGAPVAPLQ
Protocol: as §1

FGFR4 = FGFR4 (Homo sapiens, UniProt P22455); assay: Activity against various protein tyrosine kinases: FGFR4; settings: for inhibition at 0.01 µM: 10 nM
Protocol: as §1

AurB = AurB (Homo sapiens, UniProt Q96GD4); assay: Activity against various protein tyrosine kinases: AurB; settings: for inhibition at 0.01 µM: 10 nM; for inhibition at 1 µM: read-out: % Inhibition at 1 μM
Sequence of AurB (Q96GD4 whole entry): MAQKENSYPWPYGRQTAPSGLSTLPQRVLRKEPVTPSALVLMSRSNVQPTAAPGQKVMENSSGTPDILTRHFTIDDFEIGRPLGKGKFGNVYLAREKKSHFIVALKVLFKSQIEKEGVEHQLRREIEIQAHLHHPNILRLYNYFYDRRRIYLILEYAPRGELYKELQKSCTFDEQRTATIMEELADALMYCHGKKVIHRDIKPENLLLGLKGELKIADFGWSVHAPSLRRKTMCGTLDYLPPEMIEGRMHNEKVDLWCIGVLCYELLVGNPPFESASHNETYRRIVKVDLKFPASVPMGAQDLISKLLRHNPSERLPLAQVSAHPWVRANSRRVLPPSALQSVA
Protocol: as §1

p38a = p38a (Homo sapiens, UniProt Q16539); assay: Activity against various protein tyrosine kinases: p38a; settings: for inhibition at 0.01 µM: 10 nM; for inhibition at 1 µM: read-out: % Inhibition at 1 μM
Sequence of p38a (Q16539 whole entry): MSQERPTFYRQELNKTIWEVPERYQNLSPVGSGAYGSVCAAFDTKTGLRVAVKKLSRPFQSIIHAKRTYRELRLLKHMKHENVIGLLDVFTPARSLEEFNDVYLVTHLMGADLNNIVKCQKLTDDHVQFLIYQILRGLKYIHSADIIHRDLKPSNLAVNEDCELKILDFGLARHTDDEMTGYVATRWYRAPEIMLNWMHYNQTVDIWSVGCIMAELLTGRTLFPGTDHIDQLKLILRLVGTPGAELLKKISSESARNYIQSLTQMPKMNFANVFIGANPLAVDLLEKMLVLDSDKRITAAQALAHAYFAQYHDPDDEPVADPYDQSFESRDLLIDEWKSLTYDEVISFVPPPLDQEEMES
Protocol: as §1

AKT3 = AKT3 (Homo sapiens, UniProt Q9Y243); assay: Activity against various protein tyrosine kinases: AKT3; settings: for inhibition at 0.01 µM: 10 nM
Sequence of AKT3 (Q9Y243 whole entry, species assumed): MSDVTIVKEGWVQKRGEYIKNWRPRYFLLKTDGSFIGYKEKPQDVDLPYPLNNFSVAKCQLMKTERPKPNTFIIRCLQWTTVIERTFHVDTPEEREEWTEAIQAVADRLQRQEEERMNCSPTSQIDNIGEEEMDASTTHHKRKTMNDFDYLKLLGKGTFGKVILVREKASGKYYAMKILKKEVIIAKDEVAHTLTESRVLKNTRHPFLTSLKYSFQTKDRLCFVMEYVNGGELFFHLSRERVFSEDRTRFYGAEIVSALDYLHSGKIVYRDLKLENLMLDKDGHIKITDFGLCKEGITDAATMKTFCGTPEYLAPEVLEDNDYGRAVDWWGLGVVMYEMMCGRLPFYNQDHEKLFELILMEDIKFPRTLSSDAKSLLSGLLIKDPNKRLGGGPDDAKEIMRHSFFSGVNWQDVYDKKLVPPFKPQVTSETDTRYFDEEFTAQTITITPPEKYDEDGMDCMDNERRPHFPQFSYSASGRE
Protocol: as §1

PKCz = molecular target: T1, PKCz (Homo sapiens, UniProt Q05513); assay: Activity against various protein tyrosine kinases: PKCz; settings: for inhibition at 0.01 µM: 10 nM
T1 sequence (Q05513 1-592): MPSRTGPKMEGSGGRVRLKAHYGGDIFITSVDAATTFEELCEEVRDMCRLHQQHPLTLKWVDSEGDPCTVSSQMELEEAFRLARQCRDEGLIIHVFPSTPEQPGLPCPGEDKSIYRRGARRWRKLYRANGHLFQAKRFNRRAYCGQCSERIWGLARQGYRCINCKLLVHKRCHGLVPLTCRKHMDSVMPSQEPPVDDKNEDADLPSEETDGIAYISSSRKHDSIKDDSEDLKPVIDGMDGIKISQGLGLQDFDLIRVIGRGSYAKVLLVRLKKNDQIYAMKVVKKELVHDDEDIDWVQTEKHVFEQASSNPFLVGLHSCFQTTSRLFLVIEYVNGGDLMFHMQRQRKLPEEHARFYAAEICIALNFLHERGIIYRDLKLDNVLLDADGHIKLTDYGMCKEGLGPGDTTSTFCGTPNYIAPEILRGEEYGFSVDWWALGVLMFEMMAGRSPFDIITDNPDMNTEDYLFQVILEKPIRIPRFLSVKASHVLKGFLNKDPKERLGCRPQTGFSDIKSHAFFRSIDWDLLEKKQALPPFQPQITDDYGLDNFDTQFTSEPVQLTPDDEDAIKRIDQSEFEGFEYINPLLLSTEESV
Protocol: as §1

GSK3b = GSK3b (Homo sapiens, UniProt P49841); assay: Activity against various protein tyrosine kinases: GSK3b; settings: for inhibition at 0.01 µM: 10 nM
Sequence of GSK3b (P49841 whole entry, species assumed): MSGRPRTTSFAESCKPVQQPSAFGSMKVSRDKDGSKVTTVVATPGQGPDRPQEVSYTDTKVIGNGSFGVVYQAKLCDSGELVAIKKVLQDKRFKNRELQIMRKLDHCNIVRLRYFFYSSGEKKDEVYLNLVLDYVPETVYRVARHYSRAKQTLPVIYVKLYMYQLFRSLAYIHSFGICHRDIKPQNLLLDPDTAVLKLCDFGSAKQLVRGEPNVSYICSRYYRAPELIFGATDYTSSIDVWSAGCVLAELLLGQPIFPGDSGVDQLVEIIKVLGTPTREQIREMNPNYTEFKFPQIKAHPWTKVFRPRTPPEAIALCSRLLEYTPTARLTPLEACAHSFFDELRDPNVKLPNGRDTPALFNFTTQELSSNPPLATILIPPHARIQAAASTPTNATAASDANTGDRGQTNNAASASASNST
Protocol: as §1

Erk2 = Erk2 (Homo sapiens, UniProt P28482); assay: Activity against various protein tyrosine kinases: Erk2; settings: for inhibition at 0.01 µM: 10 nM
Sequence of Erk2 (P28482 whole entry, species assumed): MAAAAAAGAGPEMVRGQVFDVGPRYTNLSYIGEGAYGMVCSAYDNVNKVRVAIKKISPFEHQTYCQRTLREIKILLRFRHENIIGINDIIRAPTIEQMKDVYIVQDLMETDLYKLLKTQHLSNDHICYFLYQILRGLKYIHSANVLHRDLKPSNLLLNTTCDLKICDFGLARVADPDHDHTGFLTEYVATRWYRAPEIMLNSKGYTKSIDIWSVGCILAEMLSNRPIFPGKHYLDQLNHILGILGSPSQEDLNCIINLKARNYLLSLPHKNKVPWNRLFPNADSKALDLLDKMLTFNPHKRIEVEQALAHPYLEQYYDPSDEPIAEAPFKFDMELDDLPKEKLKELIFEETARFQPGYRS
Protocol: as §1

PDGFR_alpha = PDGFR_alpha (Homo sapiens, UniProt P16234); assay: Activity against various protein tyrosine kinases: PDGFR_alpha; settings: for inhibition at 0.01 µM: 10 nM
Sequence of PDGFR_alpha (P16234 24-1089, species assumed): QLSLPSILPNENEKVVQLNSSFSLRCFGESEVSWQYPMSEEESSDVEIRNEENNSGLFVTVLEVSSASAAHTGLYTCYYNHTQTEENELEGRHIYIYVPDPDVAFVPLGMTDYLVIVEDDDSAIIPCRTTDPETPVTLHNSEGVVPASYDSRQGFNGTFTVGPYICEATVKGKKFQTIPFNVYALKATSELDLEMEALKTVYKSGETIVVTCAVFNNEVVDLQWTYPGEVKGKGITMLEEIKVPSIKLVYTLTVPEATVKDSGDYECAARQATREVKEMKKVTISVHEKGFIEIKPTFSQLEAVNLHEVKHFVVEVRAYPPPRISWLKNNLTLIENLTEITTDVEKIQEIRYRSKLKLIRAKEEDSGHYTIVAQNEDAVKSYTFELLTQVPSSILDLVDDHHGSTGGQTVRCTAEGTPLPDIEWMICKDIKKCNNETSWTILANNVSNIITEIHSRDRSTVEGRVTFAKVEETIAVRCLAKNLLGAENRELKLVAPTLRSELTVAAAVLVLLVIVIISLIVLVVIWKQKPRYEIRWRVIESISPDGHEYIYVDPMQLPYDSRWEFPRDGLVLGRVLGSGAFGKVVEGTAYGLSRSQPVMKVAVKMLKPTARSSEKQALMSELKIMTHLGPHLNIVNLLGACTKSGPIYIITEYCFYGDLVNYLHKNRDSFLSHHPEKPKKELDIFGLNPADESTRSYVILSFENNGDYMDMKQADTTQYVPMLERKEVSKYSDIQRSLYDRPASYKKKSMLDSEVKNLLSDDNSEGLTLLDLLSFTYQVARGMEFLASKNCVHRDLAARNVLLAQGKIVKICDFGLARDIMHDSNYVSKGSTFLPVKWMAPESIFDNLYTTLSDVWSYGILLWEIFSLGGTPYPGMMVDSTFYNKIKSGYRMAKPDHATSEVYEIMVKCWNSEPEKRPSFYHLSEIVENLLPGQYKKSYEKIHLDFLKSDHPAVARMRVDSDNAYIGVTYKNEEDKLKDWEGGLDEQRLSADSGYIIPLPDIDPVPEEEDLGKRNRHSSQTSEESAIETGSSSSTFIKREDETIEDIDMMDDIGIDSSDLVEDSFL
Protocol: as §1

Fer = Fer (Homo sapiens, UniProt P16591); assay: Activity against various protein tyrosine kinases: Fer; settings: for inhibition at 0.01 µM: 10 nM
Protocol: as §1

AKT2 = AKT2 (Homo sapiens, UniProt P31751); assay: Activity against various protein tyrosine kinases: AKT2; settings: for inhibition at 0.01 µM: 10 nM
Protocol: as §1

MET = MET (Homo sapiens, UniProt P08581); assay: Activity against various protein tyrosine kinases: MET; settings: for inhibition at 0.01 µM: 10 nM
Protocol: as §1

AurA = molecular target: T2, AurA (Homo sapiens, UniProt O14965); assay: Activity against various protein tyrosine kinases: AurA; settings: for inhibition at 0.01 µM: 10 nM
T2 sequence (O14965 1-403): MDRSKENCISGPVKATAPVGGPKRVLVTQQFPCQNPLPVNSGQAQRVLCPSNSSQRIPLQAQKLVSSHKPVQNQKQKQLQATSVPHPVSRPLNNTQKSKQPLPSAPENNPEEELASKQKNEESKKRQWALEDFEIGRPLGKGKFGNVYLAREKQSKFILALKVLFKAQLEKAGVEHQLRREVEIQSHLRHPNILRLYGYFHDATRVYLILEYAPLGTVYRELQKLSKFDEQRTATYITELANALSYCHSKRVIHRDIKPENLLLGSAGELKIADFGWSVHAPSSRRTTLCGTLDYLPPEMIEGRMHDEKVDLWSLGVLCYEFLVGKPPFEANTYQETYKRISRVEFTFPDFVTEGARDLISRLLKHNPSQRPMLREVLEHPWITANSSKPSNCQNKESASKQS
Protocol: as §1

CHK2 = CHK2 (Homo sapiens, UniProt O96017); assay: Activity against various protein tyrosine kinases: CHK2; settings: for inhibition at 0.01 µM: 10 nM
Sequence of CHK2 (O96017 whole entry, species assumed): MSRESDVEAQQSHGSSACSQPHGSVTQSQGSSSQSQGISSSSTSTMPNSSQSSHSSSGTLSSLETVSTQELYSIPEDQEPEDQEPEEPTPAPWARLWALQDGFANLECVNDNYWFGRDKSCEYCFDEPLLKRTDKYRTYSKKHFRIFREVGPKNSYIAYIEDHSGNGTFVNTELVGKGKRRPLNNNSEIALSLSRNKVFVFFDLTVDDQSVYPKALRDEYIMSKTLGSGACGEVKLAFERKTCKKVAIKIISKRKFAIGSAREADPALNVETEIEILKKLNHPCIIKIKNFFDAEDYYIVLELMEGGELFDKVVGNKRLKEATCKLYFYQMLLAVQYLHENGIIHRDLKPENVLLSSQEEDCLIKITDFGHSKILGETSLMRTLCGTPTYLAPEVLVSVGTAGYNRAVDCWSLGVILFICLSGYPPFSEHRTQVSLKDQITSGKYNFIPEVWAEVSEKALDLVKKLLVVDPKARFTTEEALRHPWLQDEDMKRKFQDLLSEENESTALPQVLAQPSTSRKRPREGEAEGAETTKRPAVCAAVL
Protocol: as §1

CHK1 = molecular target: T3, CHK1 (Homo sapiens, UniProt O14757); assay: Activity against various protein tyrosine kinases: CHK1; settings: for inhibition at 0.01 µM: 10 nM
T3 sequence (O14757 1-476): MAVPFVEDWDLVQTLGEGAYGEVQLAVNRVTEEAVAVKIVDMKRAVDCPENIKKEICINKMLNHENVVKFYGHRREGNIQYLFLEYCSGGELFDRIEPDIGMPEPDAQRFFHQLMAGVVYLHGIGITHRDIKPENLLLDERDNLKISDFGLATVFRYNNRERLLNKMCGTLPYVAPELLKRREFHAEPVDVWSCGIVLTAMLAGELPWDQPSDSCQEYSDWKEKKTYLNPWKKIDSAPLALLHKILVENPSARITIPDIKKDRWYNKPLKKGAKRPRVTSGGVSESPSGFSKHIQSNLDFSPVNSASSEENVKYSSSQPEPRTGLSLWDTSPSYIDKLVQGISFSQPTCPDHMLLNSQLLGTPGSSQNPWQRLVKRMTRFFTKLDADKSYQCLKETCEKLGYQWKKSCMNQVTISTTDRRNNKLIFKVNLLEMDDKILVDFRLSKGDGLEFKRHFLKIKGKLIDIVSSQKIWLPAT
Protocol: as §1

Sequence of AKT1 (P31749 whole entry, species assumed): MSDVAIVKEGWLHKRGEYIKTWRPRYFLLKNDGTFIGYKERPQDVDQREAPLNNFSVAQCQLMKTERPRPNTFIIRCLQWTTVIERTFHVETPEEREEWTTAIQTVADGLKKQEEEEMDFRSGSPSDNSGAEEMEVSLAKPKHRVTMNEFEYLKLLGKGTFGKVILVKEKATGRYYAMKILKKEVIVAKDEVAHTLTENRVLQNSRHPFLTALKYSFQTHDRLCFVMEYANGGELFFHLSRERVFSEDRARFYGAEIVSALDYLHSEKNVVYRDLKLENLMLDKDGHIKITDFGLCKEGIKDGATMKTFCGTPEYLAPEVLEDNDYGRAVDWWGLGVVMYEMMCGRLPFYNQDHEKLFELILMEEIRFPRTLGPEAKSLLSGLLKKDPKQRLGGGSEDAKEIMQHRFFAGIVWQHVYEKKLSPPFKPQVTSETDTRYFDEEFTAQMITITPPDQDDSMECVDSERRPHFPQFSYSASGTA

inhibition at 0.01 µM (AKT1) | inhibition at 1 µM (AKT1) | inhibition at 0.01 µM (CaMKII (beta)) | inhibition at 1 µM (CaMKII (beta)) | inhibition at 0.01 µM (FGFR4) | inhibition at 1 µM (FGFR4) | inhibition at 0.01 µM (AurB; AurB) | inhibition at 1 µM (AurB; AurB, 1 μM) | inhibition at 0.01 µM (AKT3) | inhibition at 1 µM (AKT3) | inhibition at 0.01 µM (PKCz) | inhibition at 0.01 µM (GSK3b) | inhibition at 0.01 µM (Erk2) | inhibition at 0.01 µM (PDGFR_alpha) | inhibition at 0.01 µM (Fer) | inhibition at 1 µM (AKT2) | inhibition at 0.01 µM (MET) | inhibition at 0.01 µM (AurA) | inhibition at 0.01 µM (CHK2) | inhibition at 0.01 µM (CHK1) | SMILES | further results
-1% | 0% | 1% | 2% | 0% | 2% | 0% | 4% | -3% | -2% | 5% | 3% | 3% | 46% | -2% | 3% | 1% | 3% | 2% | 10% | COCCOCCOCCOCCOCCOCCOCCNC(=O)OCCN1CCN(c2cc(Nc3ncc(C(=O)Nc4c(C)cccc4Cl)s3)nc(C)n2)CC1 [mPEG7-NHCOO-Dasatinib] | inhibition at 0.01 µM (p38a; p38a): 5%; inhibition at 1 µM (p38a; p38a, 1 μM): 74%; inhibition at 1 µM (PKCz): -9%; inhibition at 1 µM (GSK3b): 2%; inhibition at 1 µM (Erk2): 2%; inhibition at 1 µM (PDGFR_alpha): 98%; inhibition at 1 µM (Fer): 5%; inhibition at 0.01 µM (AKT2): 3%; inhibition at 1 µM (MET): 1%; inhibition at 1 µM (AurA): 28%; inhibition at 1 µM (CHK2): 1%; inhibition at 1 µM (CHK1): 8%
7% | 0% | 1% | 2% | 3% | 6% | -1% | 4% | 0% | -1% | -12% | 4% | 6% | 58% | -4% | 7% | 3% | -7% | 1% | -2% | COCCOCCOCCNC(=O)OCCN1CCN(c2cc(Nc3ncc(C(=O)Nc4c(C)cccc4Cl)s3)nc(C)n2)CC1 [mPEG3-NHCOO-Dasatinib] | inhibition at 0.01 µM (p38a; p38a): 6%; inhibition at 1 µM (p38a; p38a, 1 μM): 81%; inhibition at 1 µM (PKCz): -13%; inhibition at 1 µM (GSK3b): 1%; inhibition at 1 µM (Erk2): 11%; inhibition at 1 µM (PDGFR_alpha): 99%; inhibition at 1 µM (Fer): 5%; inhibition at 0.01 µM (AKT2): 9%; inhibition at 1 µM (MET): 0%; inhibition at 1 µM (AurA): 19%; inhibition at 1 µM (CHK2): 11%; inhibition at 1 µM (CHK1): 0%

SMILES | inhibition at 0.01 µM (AKT1) | inhibition at 1 µM (AKT1) | inhibition at 0.01 µM (CaMKII (beta)) | inhibition at 1 µM (CaMKII (beta)) | inhibition at 0.01 µM (FGFR4) | inhibition at 1 µM (FGFR4) | inhibition at 0.01 µM (AurB; AurB) | inhibition at 1 µM (AurB; AurB, 1 μM) | inhibition at 0.01 µM (AKT3) | inhibition at 1 µM (AKT3) | inhibition at 0.01 µM (PKCz) | inhibition at 0.01 µM (GSK3b) | inhibition at 0.01 µM (Erk2) | inhibition at 0.01 µM (PDGFR_alpha) | inhibition at 0.01 µM (Fer) | inhibition at 1 µM (AKT2) | inhibition at 0.01 µM (MET) | inhibition at 0.01 µM (AurA) | inhibition at 0.01 µM (CHK2) | inhibition at 0.01 µM (CHK1) | further results
Cc1nc(Nc2ncc(C(=O)Nc3c(C)cccc3Cl)s2)cc(N2CCN(CCO)CC2)n1 [Dasatinib, reference compound] | -6% | -2% | – | 3% | -2% | – | – | – | -3% | -4% | 2% | 7% | -2% | 10% | -3% | -2% | -2% | -2% | 3% | 3% | inhibition at 1 µM (AurB): 6%; inhibition at 1 µM (p38a): 75%
